Tested on: human cervical cancer Caski cells (HPV16 positive)
Experiment: Cytotoxicity assay (MTT, Reed-Muench)
Assay type: cell-based
Details: 72 h
Description: (1) Cytotoxicity assay: human cervical cancer Caski cells (HPV16 positive) at an exponential phase cultured through a conventional culturing method is digested by a trypsase, such that the attached cells are detached. The cells are suspended in a liquid medium containing 10% of fetal bovine serum, and are cultured by inoculating in a 96-well plate, each well containing 1×10^5 cells. The cells are incubated in a CO2 incubator for 24 h to make the cells be attached. labeled amount of paracetamol or paracetamol pharmaceutical preparation prepared from examples 1-21 is dissolved in DMSO used for cell culture, and then the solution is diluted with the liquid medium into a series of drug culture media with increasing concentrations, wherein the concentrations are sequentially 25, 50, 100, 200 and 400 μg/mL. The culture medium is decanted, 100 μL drug culture medium formulated according to a multiple relationship is added into the administered group, while a culture medium is used instead of the drug solution for the control group, wherein four vice holes are used at each concentration, and the cells are incubated in a CO2 incubator for 72 h. The median toxic concentration (TC50) and maximal atoxic concentration (TC0) are calculated based on a Reed-Muench method, by using a MTT method.

CC(=O)Nc1ccc(O)cc1 [Example 1, paracetamol]
TC0: 200 µg/mL | TC50: >200 µg/mL

— US10045954B2, “Use of novel anti-HPV pharmaceutical preparation” (INSTITUTE OF BIOMEDICAL ENGINEERING, CHINESE ACADEMY OF …, priority 2013, dated 2018)
